Key:
[1] = test system: VEGF induced increases in intracellular calcium levels in HUVEC (human umbilical vein endothelial cells); experiment: VEGF Stimulated Ca++ Signal in vitro (FLIPR); type: cell-based; conditions: VEGF 5 ng/mL; for IC50: 0.01 to 10.0 μM
Outline: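 HUVEC loaded with Fluo-4 (45 min, 37° C.), washed, then pre-incubated 30 min with compound (10 μM single dose or 0.01–10.0 μM; 0.1% DMSO) before 5 ng/mL VEGF. Fluorescence at 516 nm read by FLIPR; IC50 from % inhibition of max-min VEGF response.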

[2] = biological target: T1, cytoplasmic domain of the human VEGF receptor (VEGFR-2) (Homo sapiens, UniProt P35968); experiment: KDR Assay; type: biochemical; conditions: His-VEGFR-2; 3.6 μM ATP
T1 construct: The cytoplasmic domain of the human VEGF receptor (VEGFR-2) was expressed as a Histidine-tagged fusion protein; Histidine tag
T1 sequence (P35968 786-1356): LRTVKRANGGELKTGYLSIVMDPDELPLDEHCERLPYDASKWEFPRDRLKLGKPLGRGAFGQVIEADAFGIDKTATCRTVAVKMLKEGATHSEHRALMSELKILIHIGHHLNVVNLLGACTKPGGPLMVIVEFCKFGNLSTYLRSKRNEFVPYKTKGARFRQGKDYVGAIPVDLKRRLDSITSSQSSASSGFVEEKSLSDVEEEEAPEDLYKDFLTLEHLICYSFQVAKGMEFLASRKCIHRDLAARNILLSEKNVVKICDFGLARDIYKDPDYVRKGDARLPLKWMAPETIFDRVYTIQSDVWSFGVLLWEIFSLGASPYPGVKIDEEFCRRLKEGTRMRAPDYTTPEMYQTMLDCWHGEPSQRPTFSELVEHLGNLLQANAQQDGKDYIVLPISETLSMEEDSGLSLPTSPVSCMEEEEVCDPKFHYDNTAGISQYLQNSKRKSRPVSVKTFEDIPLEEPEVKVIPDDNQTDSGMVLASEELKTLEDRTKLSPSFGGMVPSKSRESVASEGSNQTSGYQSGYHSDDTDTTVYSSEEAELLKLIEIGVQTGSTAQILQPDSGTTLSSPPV
Procedure: The cytoplasmic domain of the human VEGF receptor (VEGFR-2) was expressed as a Histidine-tagged fusion protein following infection of insect cells using an engineered baculovirus. His-VEGFR-2 was purified to homogeneity, as determined by SDS-PAGE, using nickel resin chromatography. Kinase assays were performed in 96 well microtiter plates that were coated overnight with 30 μg of poly-Glu-Tyr (4:1) in 10 mM Phosphate Buffered Saline (PBS), pH 7.2-7.4. The plates were incubated with 1% BSA and then washed four times with PBS prior to starting the reaction. Reactions were carried out in 120 μL reaction volumes containing 3.6 μM ATP in kinase buffer (50 mM Hepes buffer pH 7.4, 20 mM MgCl2, 0.1 mM MnCl2 and 0.2 mM Na3VO4). Test compounds were reconstituted in 100% DMSO and added to the reaction to give a final DMSO concentration of 5%. Reactions were initiated by the addition 0.5 ng of purified protein. Following a ten minute incubation at 25° C., the reactions were washed four times with PBS containing 0.05% Tween-20. 100 μl of a monoclonal anti-phosphotyrosine antibody-peroxidase conjugate was diluted 1:10000 in PBS-Tween-20 and added to the wells for 30 minutes. Following four washes with PBS-Tween-20, 100 μl of O-phenylenediamine Dihydrochloride in Phosphate-citrate buffer, containing urea hydrogen peroxide, was added to the wells for 7 minutes as a colorimetric substrate for the peroxidase. The reaction was terminated by the addition of 100 μl of 2.5N H2SO4 to each well and read using a microplate ELISA reader set at 492 nm. IC50 values for compound inhibition were calculated directly from graphs of optical density (arbitrary units) versus compound concentration following subtraction of blank values.

| Structure (SMILES) | inhibition at 10 µM ([1]; Homo sapiens, 10 μM) [%] | IC50 ([1]; Homo sapiens) [nM] | IC50 [2] [nM] | IC50 [1] [nM] | VEGF Stimulated Ca^++ signal assay % inhibition @ 10 μM ([1]; 10 μM) [%] |
| --- | --- | --- | --- | --- | --- |
| CCc1ccc(NC=C2C(=O)Nc3ccccc32)cc1 [Example 5, 3-[(4-Ethyl-phenylamino)-methylene]-1,3-dihydro-indol-2-one] | 77.3 | 1820 | 480 |  |  |
| CCc1cccc(NC=C2C(=O)Nc3ccccc32)c1 [Example 6] | 90.1 | 1840 | 520 |  |  |
| COc1ccc(NC=C2C(=O)Nc3ccccc32)cc1 [Example 7, 3-[(4-Methoxy-phenylamino)-methylene]-1,3-dihydro-indol-2-one] | 94.5 | ≤ 1000 | 690 | 950 |  |
| O=C1Nc2ccccc2C1=CNc1cccc(O)c1 [Example 15, 3-[(3-Hydroxy-phenylamino)-methylene]-1,3-dihydro-indol-2-one] | 93.7 |  | 910 |  |  |
| COc1cc(NC=C2C(=O)Nc3ccccc32)cc(OC)c1 [Example 16, 3-[(3,5-Dimethoxy-phenylamino)-methylene]-1,3-dihydro-indol-2-one] | 50 | ≥ 10000 | 1270 |  |  |
| CC(C)(C)c1ccc(NC=C2C(=O)Nc3ccccc32)cc1 [Example 17, 3-[(4-tert-Butyl-phenylamino)-methylene]-1,3-dihydro-indol-2-one] | 76.5 | 3000 | 790 |  |  |
| Cc1ccc(NC=C2C(=O)Nc3ccccc32)cc1C [Example 20, 3-[(3,4-Dimethyl-phenylamino)-methylene]-1,3-dihydro-indol-2-one] | 63 | 1820 | 1210 |  |  |
| COc1ccc(NC=C2C(=O)Nc3ccccc32)cc1F [Example 21, 3-[(3-Fluoro-4-methoxy-phenylamino)-methylene]-1,3-dihydro-indol-2-one] | 88 | 1500 | 720 |  |  |
| N#Cc1ccc(NC=C2C(=O)Nc3ccccc32)cc1 [Example 29, 3-[(4-Cyanophenylamino)-methylene]-1,3-dihydro-indol-2-one] | 81.5 | 7290 | 680 |  |  |
| O=C1Nc2ccccc2C1=CNc1ccc2[nH]ccc2c1 [Example 31, 3-[(5-Indolylamino)-methylene]-1,3-dihydro-indol-2-one] | 98.6 | ≤ 1000 | 570 | 720 |  |
| O=C1Nc2ccccc2C1=CNc1ccc2[nH]ncc2c1 [Example 32, 3-[(5-Indazolylamino)-methylene]-1,3-dihydro-indol-2-one] | 72.2 | 2660 | 600 |  |  |
| NC(=O)c1ccc(NC=C2C(=O)Nc3ccccc32)cc1 [Example 33, 3-[(4-Benzamidylamino)-methylene]-1,3-dihydro-indol-2-one] | 95.9 | 1350 | 880 |  |  |
| CC(=O)Nc1ccc(NC=C2C(=O)Nc3ccccc32)cc1 [Example 34, 3-[(4-Acetanilidylamino)-methylene]-1,3-dihydro-indol-2-one] | 94.5 | 2250 | 470 |  |  |
| O=C(O)Cc1cccc(NC=C2C(=O)Nc3ccccc32)c1 [Example 35, (3-[(2-Oxo-1,2-dihydro-indol-3-ylidenemethyl)-amino]-phenyl-)acetic acid] | 95.1 | 3100 | 190 |  |  |
| NS(=O)(=O)c1ccc(NC=C2C(=O)Nc3ccccc32)cc1 [Example 38, 2-Oxo-1,2-dihydro-indol-3-ylidenemethyl-sulfanilamide] |  |  | 500 | 1450 | 92.08 |
| O=C1Nc2ccccc2C1=CNc1ccc2ncsc2c1 [Example 43, 3-[(6-Benzthioazolylamino)-methylene]-1,3-dihydro-indol-2-one] | 84 | 1740 | 230 |  |  |
| O=C1Nc2ccccc2C1=CNc1ccc(C(=O)O)c(O)c1 [Example 44, 2-Hydroxy-4-[(2-oxo-1,2-dihydro-indol-3-ylidenemethyl)-amino]-benzoic acid] | 96 | 2020 | 660 |  |  |

| Structure (SMILES) | inhibition at 10 µM ([1]; Homo sapiens, 10 μM) [%] | IC50 ([1]; Homo sapiens) [nM] | IC50 [2] [nM] | IC50 [1] [nM] | VEGF Stimulated Ca^++ signal assay % inhibition @ 10 μM ([1]; 10 μM) [%] |
| --- | --- | --- | --- | --- | --- |
| Cc1ccc(NC=C2C(=O)Nc3ccccc32)cc1O [Example 48, 3-[(3-Hydroxy-4-methyl-phenylamino)-methylene]-1,3-dihydro-indol-2-one] | 95.4 |  | 740 |  |  |
| COc1ccc(NC=C2C(=O)Nc3ccccc32)cc1O [Example 49, 3-[(3-Hydroxy-4-methoxy-phenylamino)-methylene]-1,3-dihydro-indol-2-one] | 97.1 |  | 510 |  |  |
| O=C1Nc2ccccc2C1=CNc1ccc(OC(F)F)cc1 [Example 50, 3-{[4-(1,1-Difluoro-methoxy)-phenylamino]-methylene}-1,3-dihydro-indol-2-one] | 93.5 | 1650 | 550 |  |  |
| CC(C)c1ccc(NC=C2C(=O)Nc3ccccc32)cc1 [Example 52, 3-[(4-Isopropyl-phenylamino)-methylene]-1,3-dihydro-indol-2-one] | 69 | 2280 | 580 |  |  |
| COc1cccc(NC=C2C(=O)Nc3ccc(Cl)cc32)c1 [Example 57, 5-Chloro-3-[(3-methoxy-phenylamino)-methylene]-1,3-dihydro-indol-2-one] | 60 | 5850 | 1880 |  |  |
| Cc1cccc2c1C(=CNc1ccccc1)C(=O)N2 [Example 58, 4-Methyl-3-phenylaminomethylene-1,3-dihydro-indol-2-one] | 86.6 | ≤ 1000 | 360 | 810 |  |
| COc1ccc(NC=C2C(=O)Nc3cccc(C)c32)cc1 [Example 59, 3-[(4-Methoxy-phenylamino)-methylene]-4-methyl-1,3-dihydro-indol-2-one] | 86 | 1650 | 180 |  |  |
| Cc1cccc2c1C(=CNc1cccc(O)c1)C(=O)N2 [Example 60, 3-[(3-Hydroxy-phenylarmino)-methylene]-4-methyl-1,3-dihydro-indol-2-one] | 94 | 1330 | 280 |  |  |
| COc1ccc(NC=C2C(=O)Nc3ccc(Cl)cc32)cc1O [Example 65, 3-[(3-Hydroxy-4-methoxyphenylamino)-methylene]-5-chloro-1,3-dihydro-indol-2-one] | 95.5 | 1100 | 530 |  |  |
| CC(O)c1ccc(NC=C2C(=O)Nc3ccc(Cl)cc32)cc1 (stereo not drawn) [Example 72, 5-Chloro-3-{[4-(1-hydroxy-ethyl)-phenylamino]-methylene}-1,3-dihydro-indol-2-one] | 81.5 | 1560 | 430 |  |  |
| COc1ccc(NC=C2C(=O)Nc3ccc(Cl)cc32)cc1 [Example 73, 3-[(4-Methoxyphenylamino)-methylene]-5-chloro-1,3-dihydro-indol-2-one] | 56.5 | 3650 | 260 |  |  |
| CCOc1ccc(NC=C2C(=O)Nc3ccccc32)cc1 [Example 82, 3-[(4-Ethoxyphenylamino)-methylene]-1,3-dihydro-indol-2-one] |  | 2500 | 380 |  |  |
| O=C1Nc2ccccc2C1=CNc1ccc(CCO)cc1 [Example 87, 3-{[4-(2-Hydroxyethyl)phenylamino]-methylene}-1,3-dihydro-indol-2-one] | 79.5 | 2250 | 460 |  |  |
| O=C1Nc2ccccc2C1=CNc1ccc(CCN2CCOCC2)cc1 [Example 306, 3-{[4-(2-Morpholin-4-yl-ethyl)-phenylamino]-methylene}-1,3-dihydro-indol-2-one] |  |  | 620 |  |  |
| Cc1cccc2c1C(=CNc1ccc(CCN3CCOCC3)cc1)C(=O)N2 [Example 308, 4-Methyl-3-{[4-(2-morpholin-4-yl-ethyl)-phenylamino]-methylene}-1,3-dihydro-indol-2-one] |  |  | 120 |  |  |
| O=C1Nc2ccc(F)cc2C1=CNc1ccc(CCN2CCOCC2)cc1 [Example 310, 5-Fluoro-3-{[4-(2-morpholin-4-yl-ethyl)-phenylamino]-methylene}-1,3-dihydro-indol-2-one] |  |  | 230 |  |  |
| O=C1Nc2cc(F)ccc2C1=CNc1ccc(CCN2CCOCC2)cc1 [Example 311, 6-Fluoro-3-{[4-(2-morpholin-4-yl-ethyl)-phenylamino]-methylene}-1,3-dihydro-indol-2-one] |  |  | 100 |  |  |

Source: US20030225152A1, “3-(Arylamino)methylene-1, 3-dihydro-2h-indol-2-ones as kinase inhibitors” (priority 2001, published 2003)
